This is an account of results in ChEMBL document CHEMBL1147821, “P3 and P4 position analysis of vinyl ester pseudopeptide proteasome inhibitors” (Bioorg Med Chem Lett, 2006).

In the assay the target is T1, Proteasome Macropain subunit MB1 (Homo sapiens, UniProt P28074).
T1 sequence (P28074 whole entry): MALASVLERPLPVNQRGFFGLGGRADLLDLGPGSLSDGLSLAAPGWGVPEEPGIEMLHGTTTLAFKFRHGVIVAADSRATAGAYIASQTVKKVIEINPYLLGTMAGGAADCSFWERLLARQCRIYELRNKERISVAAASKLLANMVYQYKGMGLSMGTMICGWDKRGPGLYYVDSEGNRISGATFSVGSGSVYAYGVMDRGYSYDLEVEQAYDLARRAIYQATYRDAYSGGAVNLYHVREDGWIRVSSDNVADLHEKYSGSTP

Each structure is given as a SMILES string.

Description: Inhibition of chymotrypsin like activity of proteasome

The IC50 is the concentration that gives 50% inhibition. Read a low IC50 as greater potency in that assay. Compound `CC(C)C[C@@H](/C=C/S(C)(=O)=O)NC(=O)[C@H](CC(C)C)NC(=O)[C@H](CC(C)C)NC(=O)OCc1ccccc1` registered a half-maximal inhibitory concentration (IC50) of 0.061 µM.

`CCOC(=O)/C=C/[C@H](CC(C)C)NC(=O)[C@H](CCC(N)=O)NC(=O)[C@@H](NC(=O)[C@@H](N)Cc1ccc(O)cc1)C(C)C` had an IC50 of 4.32 µM.

`CCOC(=O)/C=C/[C@H](CC(C)C)NC(=O)[C@H](CCC(N)=O)NC(=O)[C@H](Cc1ccccc1)NC(=O)c1cccc(O)c1C` showed an IC50 of 2.23 µM.

As to `CCOC(=O)/C=C/[C@H](CC(C)C)NC(=O)[C@H](CCC(N)=O)NC(=O)[C@@H](NC(=O)c1cccc(O)c1C)C(C)C`, the midpoint of inhibition, the IC50, lay at 6.67 µM.

Consider `CCOC(=O)/C=C/[C@H](CC(C)C)NC(=O)[C@H](CCC(N)=O)NC(=O)[C@@H](NC(=O)[C@@H](N)Cc1ccccc1)C(C)C`, for which half-maximal inhibition (IC50) was put at 4.15 µM.
